This is an account of results in patent US20260272907A1, “Therapeutic Tyrosine Kinase Inhibitors for Multiple Sclerosis” (Principia Biopharma Inc., priority 2022, published 2026).

In series [1] the test system is patients with relapsing multiple sclerosis. The series is described as follows: Long-term safety extension: slowly evolving lesions (SEL) volume (MRI). It is filed as in vivo, human. To be noted: W96. The protocol:
In the current open-label extension Part B, all patients receive 60 mg/day. MRI outcomes include numbers of new Gd-enhancing and new/enlarging T2 lesions, T2 lesion volume change from baseline, slowly evolving lesions (SEL), and paramagnetic rim lesions (PRL).

Series [2] has the same test system. The series is described as follows: Phase 2b trial: incidence of MS relapse during placebo run-out after tolebrutinib. It is filed as in vivo, human. The text has this: Unscheduled assessment visits for a suspected multiple sclerosis relapse: Participants are instructed to immediately report new neurological symptoms and recurring or worsening of previous symptoms to the Investigator. Any reported symptoms are to be collected. If a participant reports symptoms that may be consistent with relapse, an unscheduled assessment visit with the Investigator is scheduled as soon as possible (whenever possible within 7 days of onset of the symptoms). The Investigator assesses whether the reported episode is consistent with the definition of MS relapse (see Example 1.6B). If it is consistent with the definition of MS relapse or if there is any doubt and relapse cannot be ruled out, an EDSS assessment should be performed. Unscheduled visit activities are detailed in SoA (Table 1), they need to be adapted, if other pathology than MS is cause for it, and additional examinations or laboratory tests are needed for safety follow up and optimal treatment decisions.
Multiple sclerosis relapse: For the purposes of this study, MS relapse is defined as acute, new neurological symptoms or worsening of previous neurological symptoms with an objective change on neurological examination. Symptoms must: • Be attributable to MS • Last for >24 hours, and • Be present at normal body temperature (i.e., no infection, excessive exercise, or excessively high ambient temperature)
METHODS: As described in Examples 1 and 2, the 16-week, double-blind, crossover trial randomized 130 patients with RMS (1:1:1:1) to tolebrutinib 5, 15, 30, or 60 mg/day. […]
OUTCOMES: The outcomes evaluated in this example include measuring the incidence of relapse during 4-week placebo run-in and run-out, the number of new Gd-enhancing T1 lesions detected with magnetic resonance imaging (MRI) at Weeks 4, 8 and 16, the number of new or enlarging T2 lesions measured at Weeks 4, 8 and 16, and the plasma CD19+B-cell count measured in the placebo run-out cohort at baseline, 1 hour after the first dose, then at Week 12 and Week 16 (FIG. 3).

In another series the test system is patients with RMS. The series is described as follows: Ongoing tolebrutinib Phase 3 trials: drug-induced liver injury. It is filed as in vivo, human. To be noted: ongoing Phase 3 trials. An excerpt: Drug-induced liver injury has been identified in the ongoing tolebrutinib Phase 3 trials. The reported events occurred between months 2 to 3 after the start of tolebrutinib administration, and the elevation of liver enzymes appears reversible after tolebrutinib discontinuation. Thus, there is a need to mitigate the risk of hepatic injury and provide safe treatment for patients with RMS.

Series [3] relates to patients with relapsing multiple sclerosis. The series is described as follows: Phase 2b dose-finding study: total number of Gd-enhancing T1-hyperintense lesions by brain MRI. To be noted: for Count of Gd-enhancing T1-hyperintense lesions, observed mean (SD): 12 weeks of treatment.
Description: New T1 Gd-enhancing hyperintense and new and enlarging T2 lesions are evaluated at each visit as per the SoA (Table 1), comparing lesion count to that from the previous MRI scan. Unless specified otherwise, the baseline brain MRI is used as the reference to assess all MRI-derived endpoints. The baseline MRI is the last MRI performed before the randomization visit. Standardized endpoint evaluation is assured by central review of brain MRI scans. Blinded central review is performed for all MRI-derived endpoints. Magnetic resonance imaging reviewers are blinded to treatment assignments and to other participant data.
As it is reasonable to assume a constant rate of lesion formation over 12 weeks under placebo for total number of Gd-enhancing T1-hyperintense lesions, the same approach as that utilized for the primary endpoint is used, by using the Week 4 data in Cohort 2 as the Week 12 placebo data while accounting for the within-participant correlation. Descriptive summary statistics over time is provided for each of the 4 BTK inhibitor doses.
For each secondary endpoint, a similar negative binomial model and the MCP-Mod procedure were used. As it is reasonable to assume a constant rate of lesion formation over 12 weeks under placebo treatment, the same approach as that utilized for the primary endpoint was used, i.e., using the Week 4 data in Cohort 2 as the Week 12 placebo data while accounting for within-participant correlation. Descriptive summary statistics over time were provided for each of the 4 BTK inhibitor dose groups.
Where [4] appears, read: Cohort 1 (all doses), 4-week placebo run-out after 12 weeks of tolebrutinib.
Setting [5] is: 5 mg daily, after 12 weeks of treatment.
Setting [6] is: 15 mg daily, after 12 weeks of treatment.
The mark [7] stands for this setting: 30 mg daily, after 12 weeks of treatment.
Where [8] appears, read: 60 mg daily, after 12 weeks of treatment.

As for `C=CC(=O)N1CCC[C@@H](n2c(=O)n(-c3ccc(Oc4ccccc4)cc3)c3c(N)nccc32)C1` [the BTK inhibitor, (R)-1-(1-acryloylpiperidin-3-yl)-4-amino-3-(4-phenoxyphenyl)-1H-imidazo[4,5-c]pyridin-2(3H)-one], the “SEL volume, median (IQR)” value is 247.5 (84-420) mm3 in series [1] (5/60-mg arm), 258 (66-906) mm3 in series [1] (15/60-mg arm), 570 (133.5-1011) mm3 in series [1] (30/60-mg arm) and 244.5 (87-939) mm3 in series [1] (60/60-mg arm). The “Patients relapse-free during the placebo run-out” value in series [2] (setting [4]) is listed as 98.4%. Moreover, the “Relapses during the placebo run-out” value in series [2] (setting [4]) is 1. Also, the “Rebound disease activity after discontinuation” value in series [2] (patients with RMS, 4-week placebo run-out, preliminary findings) was “does not induce rebound disease activity”. Besides, the “Course of the elevation of liver enzymes after discontinuation” value in the series on patients with RMS is listed as “reversible”. The Drug-induced liver injury result in the series with patients with RMS is “identified”. Also, the “Total Gd-enhancing T1-hyperintense lesion count, Mean” value is on record as 1.77 in series [3] (setting [5]), 0.87 in series [3] (setting [6]), 1.18 in series [3] (setting [7]) and 0.29 in series [3] (setting [8]). For the same compound, the “Total Gd-enhancing T1-hyperintense lesion count, Median” value in series [3] (setting [5]), in series [3] (setting [6]), in series [3] (setting [7]) and in series [3] (setting [8]) was 0.00 throughout. For the same compound, the “Count of Gd-enhancing T1-hyperintense lesions, observed mean (SD)” value in series [3] (5 mg once daily) is on record as 1.77 (4.10); in series [3] (15 mg once daily) it was 0.87 (1.59); in series [3] (30 mg once daily), 1.18 (4.87); in series [3] (60 mg once daily), 0.29 (0.86). Also, in series [3] (setting [6]), the “Patients with 2 total Gd-enhancing T1-hyperintense lesions” value is given as 0 n. Further, the “Participants with no Gd-enhancing T1-hyperintense lesions” value in series [3] (60 mg, end of 12 weeks of treatment, 27 of 31 with evaluable MRI) is reported as 87.1%. Moreover, in series [3] (any of the doses tested (5, 15, 30, 60 mg), 12 weeks), the “Relative reduction in total count of Gd-enhancing T1-hyperintense lesions relative to placebo” value is listed as “No statistically significant relative reduction”.
